Legend:
Assay in all cases: relative viability (nuclei count vs DMSO), 5 days (fraction); higher = more cells survive
[1] = compound: NC1(c2ccc(-c3nc4ccn5c(=O)[nH]nc5c4cc3-c3ccccc3)cc2)CCC1 [MK-2206] + Cc1nc(NC(=O)N2CCC[C@H]2C(N)=O)sc1-c1ccnc(C(C)(C)C(F)(F)F)c1 [Alpelisib] (partner 2 µM)
Procedure, shortened: (§1)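 Lung cancer cell lines in 1536-well plates got either a single drug or a fixed anchor-drug dose together with five library-drug doses (not always all listed) in √10 steps, by pin tool, on the day after seeding. Nuclei were counted after 5 days, and relative viability is the treated-to-vehicle ratio of nuclei counts. Values are medians of duplicate plates.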

[2] = compound: NC1(c2ccc(-c3nc4ccn5c(=O)[nH]nc5c4cc3-c3ccccc3)cc2)CCC1 [MK-2206] + COc1cc2c(Oc3ccc(NC(=O)C4(C(=O)Nc5ccc(F)cc5)CC4)cc3F)ccnc2cc1OCCCN1CCOCC1 [Foretinib] (partner 0.25 µM)
Procedure, shortened: as §1

[3] = compound: NC1(c2ccc(-c3nc4ccn5c(=O)[nH]nc5c4cc3-c3ccccc3)cc2)CCC1 [MK-2206] + C[C@]1(O)C[C@@H](c2nc(-c3ccc4ccc(-c5ccccc5)nc4c3)c3c(N)nccn32)C1 [Linsitinib] (partner 1 µM)
Procedure, shortened: as §1

[4] = compound: NC1(c2ccc(-c3nc4ccn5c(=O)[nH]nc5c4cc3-c3ccccc3)cc2)CCC1 [MK-2206] + CC(=O)Nc1cccc(-n2c(=O)n(C3CC3)c(=O)c3c(Nc4ccc(I)cc4F)n(C)c(=O)c(C)c32)c1 [Trametinib] (partner 0.02 µM)
Procedure, shortened: as §1

[5] = compound: CS(=O)(=O)N1CCN(Cc2cc3nc(-c4cccc5[nH]ncc45)nc(N4CCOCC4)c3s2)CC1 [Pictilisib] + CS(=O)(=O)CCNCc1ccc(-c2ccc3ncnc(Nc4ccc(OCc5cccc(F)c5)c(Cl)c4)c3c2)o1 [Lapatinib] (partner 2 µM)
Procedure, shortened: as §1

Cell Line | relative viability ([1]; first compound 0.01 µM) | relative viability ([1]; first compound 0.03162 µM) | relative viability ([1]; first compound 0.3162 µM) | relative viability ([1]; first compound 1 µM) | relative viability ([2]; first compound 0.01 µM) | relative viability ([2]; first compound 0.03162 µM) | relative viability ([2]; first compound 0.3162 µM) | relative viability ([2]; first compound 1 µM) | relative viability ([3]; first compound 0.01 µM) | relative viability ([3]; first compound 0.03162 µM) | relative viability ([3]; first compound 0.3162 µM) | relative viability ([3]; first compound 1 µM) | relative viability ([4]; first compound 0.01 µM) | relative viability ([4]; first compound 0.03162 µM) | relative viability ([4]; first compound 0.3162 µM) | relative viability ([4]; first compound 1 µM) | relative viability ([5]; first compound 0.02 µM) | relative viability ([5]; first compound 0.06325 µM) | relative viability ([5]; first compound 0.6325 µM) | relative viability ([5]; first compound 2 µM)
NCI-H2126 | 0.719 | 0.707 | 0.678 | 0.621 | 1.14 | 1.17 | 1.18 | 1.13 | 0.742 | 0.634 | 0.63 | 0.686 | 0.559 | 0.543 | 0.515 | 0.455 | 0.801 | 0.748 | 0.63 | 0.462
NCI-H2228 | 0.625 | 0.621 | 0.288 | 0.262 | 0.761 | 0.811 | 0.614 | 0.467 | 0.546 | 0.677 | 0.303 | 0.264 | 0.375 | 0.433 | 0.284 | 0.448 | 1.18 | 1.12 | 0.586 | 0.339
NCI-H2347 | 0.967 | 1.11 | 1.11 | 0.973 | 0.877 | 0.818 | 1.15 | 0.723 | 0.906 | 1 | 0.848 | 0.952 | 0.325 | 0.262 | 0.284 | 0.263 | 0.86 | 0.973 | 0.992 | 0.729
NCI-H2405 | 0.762 | 0.877 | 0.728 | 0.673 | 1.03 | 1.08 | 0.991 | 0.98 | 0.878 | 1.09 | 0.878 | 0.71 | 0.697 | 0.682 | 0.668 | 0.533 | 1.2 | 1.05 | 0.801 | 0.505
NCI-H3122 | 0.737 | 0.659 | 0.677 | 0.636 | 0.998 | 0.896 | 1.05 | 0.944 | 0.942 | 1.07 | 0.927 | 0.91 | 0.237 | 0.234 | 0.198 | 0.211 | 1.01 | 1.15 | 1.13 | 0.737
PC-3 [JPC-3] | 0.985 | 1.01 | 1.02 | 1.04 | 1.05 | 1.12 | 0.99 | 1.04 | 1.01 | 0.938 | 0.91 | 0.97 | 0.686 | 0.804 | 0.599 | 0.735 | 0.439 | 0.461 | 0.426 | 0.319
PC-14 | 0.852 | 0.98 | 0.74 | 0.881 | 0.903 | 0.993 | 0.985 | 0.994 | 0.869 | 1.03 | 0.862 | 0.92 | 0.557 | 0.876 | 0.516 | 0.704 | 0.34 | 0.302 | 0.236 | 0.113
RERF-LC-KJ | 0.922 | 0.802 | 0.663 | 0.697 | 0.868 | 0.861 | 0.82 | 0.77 | 0.848 | 0.864 | 0.9 | 0.789 | 0.808 | 0.903 | 0.725 | 0.718 | 0.86 | 0.842 | 0.771 | 0.549
SK-LU-1 | 1.13 | 0.979 | 0.993 | 0.876 | 0.844 | 0.776 | 0.814 | 0.791 | 1.19 | 1.02 | 0.987 | 1.01 | 0.556 | 0.513 | 0.449 | 0.431 | 0.977 | 0.792 | 0.665 | 0.481
SK-MES-1 | 0.882 | 1.05 | 0.786 | 0.851 | 0.893 | 1.06 | 0.886 | 0.84 | 1.03 | 1.1 | 1.05 | 1.06 | 0.519 | 0.47 | 0.467 | 0.515 | 0.468 | 0.41 | 0.389 | 0.27
SW 1573 | 0.763 | 0.817 | 0.607 | 0.613 | 0.833 | 1.28 | 0.755 | 0.956 | 0.751 | 0.824 | 0.665 | 0.592 | 0.608 | 0.516 | 0.444 | 0.489 | 1.12 | 1.28 | 0.89 | 0.55
